What follows are cell lines tested with CC1(C)CNc2cc(NC(=O)c3cccnc3NCc3ccncc3)ccc21 [Motesanib] + O=C(c1cc(Cc2n[nH]c(=O)c3ccccc23)ccc1F)N1CCN(C(=O)C2CC2)CC1 [Olaparib] (partner 8 µM) (assay: relative viability (nuclei count vs DMSO), 5 days (fraction); higher = more cells survive). Conditions: first compound 0.01 µM.
Method in brief: (§1)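 Lung cancer cell lines were seeded in 1536-well plates and dosed by pin tool the next day, with either a single drug or a fixed anchor-drug dose combined with five library-drug doses (not always all listed) spaced in √10 steps. Five days later, one step fixed the cells and stained their nuclei (final 0.05% Triton X-100, 1% formaldehyde, 1 ug/ml Hoechst), and nuclei were counted on 4× images. Relative viability is the nuclei count in treated wells divided by the count in vehicle wells, and each value is the median of duplicate plates.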

| Cell Line | relative viability |
| --- | --- |
| NCI-H2342 | 0.472 |
| NCI-H727 | 0.937 |
| NCI-H1650 | 0.746 |
| EBC-1 | 0.732 |
| NCI-H1703 | 0.442 |
| NCI-H1993 | 1.03 |
| SW 1573 | 0.504 |
| NCI-H838 | 0.778 |
| LCLC-103H | 0.777 |
| NCI-H520 | 0.319 |
| NCI-H2126 | 0.892 |
| EMC-BAC-2 | 0.482 |
| NCI-H2085 | 0.756 |
| Calu-6 | 0.56 |
| HCC-366 | 0.278 |
| NCI-H1666 | 0.743 |
| NCI-H596 | 0.792 |
| LK-2 | 0.644 |

| Cell Line | relative viability |
| --- | --- |
| NCI-H1648 | 0.563 |
| SK-MES-1 | 0.736 |
| H3255 | 0.564 |
| COR-L23 | 0.366 |
| COR-L 105 | 0.767 |
| IA-LM | 0.757 |
| LOU-NH91 | 0.925 |
| ChaGo-K-1 | 0.434 |
| A549 | 0.333 |
| NCI-H522 | 0.691 |
| SW 900 | 0.904 |
| NCI-H2009 | 0.717 |
| NCI-H661 | 0.748 |
| SK-LU-1 | 0.445 |
| NCI-H1299 | 0.938 |
| CAL-12T | 0.674 |
| NCI-H2228 | 0.794 |
| NCI-H2023 | 0.469 |

Same assay, conditions: first compound 0.03162 µM

| Cell Line | relative viability |
| --- | --- |
| NCI-H2342 | 0.569 |
| NCI-H727 | 0.614 |
| NCI-H1650 | 0.875 |
| EBC-1 | 0.674 |
| NCI-H1703 | 0.305 |
| NCI-H1993 | 0.94 |
| SW 1573 | 0.485 |
| NCI-H838 | 0.765 |
| LCLC-103H | 0.737 |
| NCI-H520 | 0.32 |
| NCI-H2126 | 0.885 |
| EMC-BAC-2 | 0.516 |
| NCI-H2085 | 0.777 |
| Calu-6 | 0.603 |
| HCC-366 | 0.375 |
| NCI-H1666 | 0.761 |
| NCI-H596 | 0.623 |
| LK-2 | 0.94 |

| Cell Line | relative viability |
| --- | --- |
| SK-MES-1 | 0.725 |
| H3255 | 0.601 |
| COR-L23 | 0.389 |
| COR-L 105 | 0.761 |
| IA-LM | 0.834 |
| LOU-NH91 | 0.98 |
| ChaGo-K-1 | 0.437 |
| A549 | 0.402 |
| NCI-H522 | 0.674 |
| SW 900 | 0.677 |
| NCI-H2009 | 0.667 |
| NCI-H661 | 0.76 |
| SK-LU-1 | 0.504 |
| NCI-H1299 | 0.973 |
| CAL-12T | 0.731 |
| NCI-H2228 | 0.74 |
| NCI-H2023 | 0.409 |

Same assay, conditions: first compound 0.1 µM

| Cell Line | relative viability |
| --- | --- |
| NCI-H2342 | 0.403 |
| NCI-H727 | 0.761 |
| NCI-H1650 | 0.914 |
| EBC-1 | 0.694 |
| NCI-H1703 | 0.318 |
| NCI-H1993 | 1.03 |
| SW 1573 | 0.42 |
| NCI-H838 | 0.792 |
| LCLC-103H | 0.758 |
| NCI-H520 | 0.294 |
| NCI-H2126 | 0.899 |
| EMC-BAC-2 | 0.494 |
| NCI-H2085 | 0.764 |
| Calu-6 | 0.456 |
| HCC-366 | 0.403 |
| NCI-H1666 | 0.776 |
| NCI-H596 | 0.648 |
| LK-2 | 0.608 |

| Cell Line | relative viability |
| --- | --- |
| NCI-H2087 | 0.663 |
| SK-MES-1 | 0.736 |
| H3255 | 0.576 |
| COR-L23 | 0.275 |
| COR-L 105 | 0.745 |
| IA-LM | 0.722 |
| LOU-NH91 | 0.88 |
| ChaGo-K-1 | 0.425 |
| A549 | 0.407 |
| NCI-H522 | 0.594 |
| SW 900 | 0.811 |
| NCI-H2009 | 0.693 |
| NCI-H661 | 0.784 |
| SK-LU-1 | 0.425 |
| NCI-H1299 | 1.03 |
| CAL-12T | 0.699 |
| NCI-H2228 | 0.668 |
| NCI-H2023 | 0.515 |

Same assay, conditions: first compound 0.3162 µM

| Cell Line | relative viability |
| --- | --- |
| NCI-H2342 | 0.469 |
| NCI-H727 | 0.779 |
| NCI-H1650 | 0.632 |
| EBC-1 | 0.729 |
| NCI-H1703 | 0.223 |
| NCI-H1993 | 1.06 |
| SW 1573 | 0.588 |
| NCI-H838 | 0.746 |
| LCLC-103H | 0.807 |
| NCI-H520 | 0.297 |
| NCI-H2126 | 0.892 |
| EMC-BAC-2 | 0.471 |
| NCI-H2085 | 0.745 |
| Calu-6 | 0.546 |
| HCC-366 | 0.352 |
| NCI-H1666 | 0.851 |
| NCI-H596 | 0.677 |
| LK-2 | 0.817 |
| NCI-H2087 | 0.703 |

| Cell Line | relative viability |
| --- | --- |
| NCI-H1648 | 1.1 |
| SK-MES-1 | 0.677 |
| H3255 | 0.585 |
| COR-L23 | 0.363 |
| COR-L 105 | 0.725 |
| IA-LM | 0.855 |
| LOU-NH91 | 0.943 |
| ChaGo-K-1 | 0.484 |
| A549 | 0.438 |
| NCI-H522 | 0.677 |
| SW 900 | 0.9 |
| NCI-H2009 | 0.646 |
| NCI-H661 | 0.749 |
| SK-LU-1 | 0.505 |
| NCI-H1299 | 1.02 |
| CAL-12T | 0.683 |
| NCI-H2228 | 0.838 |
| NCI-H2023 | 0.496 |

Same assay, conditions: first compound 1 µM

| Cell Line | relative viability |
| --- | --- |
| NCI-H2342 | 0.463 |
| NCI-H727 | 0.6 |
| NCI-H1650 | 0.843 |
| EBC-1 | 0.783 |
| NCI-H1703 | 0.232 |
| NCI-H1993 | 1.08 |
| SW 1573 | 0.504 |
| NCI-H838 | 0.804 |
| LCLC-103H | 0.742 |
| NCI-H520 | 0.392 |
| NCI-H2126 | 1 |
| EMC-BAC-2 | 0.474 |
| NCI-H2085 | 0.843 |
| Calu-6 | 0.536 |
| HCC-366 | 0.397 |
| NCI-H1666 | 0.705 |
| NCI-H596 | 0.646 |
| LK-2 | 0.756 |
| NCI-H2087 | 0.747 |

| Cell Line | relative viability |
| --- | --- |
| NCI-H1648 | 1.06 |
| SK-MES-1 | 0.575 |
| H3255 | 0.643 |
| COR-L23 | 0.36 |
| COR-L 105 | 0.804 |
| IA-LM | 0.822 |
| LOU-NH91 | 0.959 |
| ChaGo-K-1 | 0.411 |
| A549 | 0.402 |
| NCI-H522 | 0.876 |
| SW 900 | 0.917 |
| NCI-H2009 | 0.682 |
| NCI-H661 | 0.774 |
| SK-LU-1 | 0.373 |
| NCI-H1299 | 0.898 |
| CAL-12T | 0.736 |
| NCI-H2228 | 0.749 |
| NCI-H2023 | 0.425 |

The cell lines below were run with C[C@@]1(C(=O)Nc2ccc(F)nc2)CCCN1c1nc(Nc2cc(C3CC3)n[nH]2)c2cccn2n1 + Nc1ncn([C@H]2C[C@H](O)[C@@H](CO)O2)c(=O)n1 [Decitabine] (partner 2 µM) in the same assay as above. Conditions: first compound 0.04 µM.
Method in brief: as §1

| Cell Line | relative viability |
| --- | --- |
| NCI-H2342 | 0.685 |
| NCI-H727 | 0.8 |
| NCI-H1650 | 0.348 |
| NCI-H1993 | 0.532 |
| SW 1573 | 0.465 |
| NCI-H838 | 0.461 |
| LCLC-103H | 0.745 |
| NCI-H520 | 0.498 |
| NCI-H2126 | 0.539 |
| EMC-BAC-2 | 0.709 |
| NCI-H2085 | 0.51 |
| HCC-366 | 0.315 |
| NCI-H1666 | 0.66 |
| NCI-H596 | 1.08 |
| NCI-H2087 | 0.237 |
| NCI-H1648 | 0.465 |
| SK-MES-1 | 0.333 |
| H3255 | 0.587 |
| COR-L23 | 0.413 |
| COR-L 105 | 0.697 |
| LOU-NH91 | 0.774 |
| ChaGo-K-1 | 0.511 |
| A549 | 0.284 |
| NCI-H522 | 0.616 |
| SW 900 | 0.403 |
| NCI-H2009 | 0.401 |
| NCI-H661 | 0.528 |
| SK-LU-1 | 0.672 |
| NCI-H2023 | 0.234 |

Same assay, conditions: first compound 0.1265 µM

| Cell Line | relative viability |
| --- | --- |
| NCI-H2342 | 0.636 |
| NCI-H727 | 0.636 |
| NCI-H1650 | 0.458 |
| NCI-H1993 | 0.522 |
| SW 1573 | 0.413 |
| NCI-H838 | 0.467 |
| LCLC-103H | 0.661 |
| NCI-H520 | 0.493 |
| NCI-H2126 | 0.389 |
| EMC-BAC-2 | 0.737 |
| NCI-H2085 | 0.499 |
| HCC-366 | 0.292 |
| NCI-H1666 | 0.644 |
| NCI-H596 | 0.977 |
| LK-2 | 0.171 |
| NCI-H2087 | 0.191 |
| NCI-H1648 | 0.464 |
| SK-MES-1 | 0.424 |
| H3255 | 0.622 |
| COR-L23 | 0.412 |
| COR-L 105 | 0.547 |
| LOU-NH91 | 0.874 |
| ChaGo-K-1 | 0.52 |
| A549 | 0.248 |
| NCI-H522 | 0.607 |
| SW 900 | 0.437 |
| NCI-H2009 | 0.369 |
| NCI-H661 | 0.514 |
| SK-LU-1 | 0.543 |
| NCI-H2023 | 0.228 |

Same assay, conditions: first compound 0.4 µM

| Cell Line | relative viability |
| --- | --- |
| NCI-H2342 | 0.559 |
| NCI-H727 | 0.529 |
| NCI-H1650 | 0.463 |
| NCI-H1993 | 0.486 |
| SW 1573 | 0.429 |
| NCI-H838 | 0.395 |
| LCLC-103H | 0.71 |
| NCI-H520 | 0.416 |
| NCI-H2126 | 0.36 |
| EMC-BAC-2 | 0.578 |
| NCI-H2085 | 0.538 |
| HCC-366 | 0.265 |
| NCI-H1666 | 0.587 |
| NCI-H596 | 0.96 |
| LK-2 | 0.18 |
| NCI-H2087 | 0.258 |
| NCI-H1648 | 0.416 |
| SK-MES-1 | 0.333 |

From the supplement of paper PMC10307832
